Data set [1] deals with LPS/IL-1β-induced IL-6 secretion in human peripheral blood mononuclear cells (PBMCs). The experiment in a line: Inhibition of LPS/IL-1β-induced IL-6 secretion in human PBMCs (IL-6 ELISA). The note with it: PBMC, LPS 10 ng/mL + IL-1β 20 ng/mL, 24 h pre-incubation, 20 h stimulation. The data set is classed as cell-based. In short, it runs like this:
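PBMCs preincubated 24 h at 37 °C with compounds (5-fold dilutions from 1 μM) in RPMI/10% FBS, then stimulated 20 h with LPS 10 ng/mL plus IL-1β 20 ng/mL (final). IL-6 in 200-fold diluted supernatant measured by ELISA at OD450 against a standard curve; IC50 from dose-response fitting.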
(In an ELISA, binding on a coated surface is turned into a signal by an enzyme label.)

In data set [2] the target is T1, IRAK4 (Homo sapiens, UniProt Q9NWZ3).
T1 construct: Effect of the Compounds on IRAK4 Protein Degradation in THP1 Cells; endogenous in cells; host or cells: THP-1 cells
T1 sequence (Q9NWZ3 1-460): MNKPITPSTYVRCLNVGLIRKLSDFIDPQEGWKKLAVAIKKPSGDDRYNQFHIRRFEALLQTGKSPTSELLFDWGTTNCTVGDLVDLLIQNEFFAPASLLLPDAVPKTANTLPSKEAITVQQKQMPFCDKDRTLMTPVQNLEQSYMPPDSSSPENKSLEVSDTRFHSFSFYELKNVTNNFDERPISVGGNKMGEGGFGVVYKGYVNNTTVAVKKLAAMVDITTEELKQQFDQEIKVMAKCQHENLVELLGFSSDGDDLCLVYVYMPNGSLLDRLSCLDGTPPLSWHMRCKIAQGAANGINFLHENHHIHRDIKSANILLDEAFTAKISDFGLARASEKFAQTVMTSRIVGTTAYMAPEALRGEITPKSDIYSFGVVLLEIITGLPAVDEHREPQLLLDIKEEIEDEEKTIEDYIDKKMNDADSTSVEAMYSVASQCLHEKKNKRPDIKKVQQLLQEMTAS
The experiment in a line: IRAK4 protein degradation in THP1 cells (Western blot). The data set is classed as cell-based. The note with it: THP-1 cells, 24 h. In outline:
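THP-1 cells (2×10^5/well) were treated with 5-fold serial compound dilutions for 24 h at 37 °C, then lysed with proteasome/phosphatase inhibitors. IRAK4 was detected by Western blot with chemiluminescence and semi-quantified by densitometry. DC50 came from the concentration–response.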
In general terms: Immunoblotting shows a protein as a band on a membrane.

Data set [3] can be described thus: Metabolic stability in human liver microsome. Type of data set: in vitro ADME. The note with it: NADPH, 60 min; for half-life at 1 µM: liver microsomes, read-out: Human liver microsome (t1/2, min). The method, then:
Clean incubation plates T60 and NCF60 were preheated at 37° C. for 10 min. Liver microsomes were diluted to a concentration of 0.56 mg/mL with 100 mM phosphate buffer, and 445 μL of the microsome working solution (0.56 mg/mL) was transferred to the preheated incubation plates T60 and NCF60, followed by incubation of the plates T60 and NCF60 with continuous shaking at 37° C. for 10 min. After incubation, 54 μL of liver microsomes were transferred to a blank plate, 6 μL of NAPDH cofactor was added to the blank plate, and then 180 μL of quenching solution was added to the blank plate. 5 μL of the compound working solution (100 μM) was added to the microsome-containing incubation plates T60 and NCF60, and mixed thoroughly 3 times. For plate NCF60, 50 μL of buffer was added and the system was mixed thoroughly 3 times before timing was started, and the plate was incubated with shaking at 37° C. for 60 min. For the quenching plate, 180 μL of quenching solution and 6 μL of NADPH cofactor were added, and the plate was ensured to be cooled to prevent evaporation. For the T60 plate, the mixture was thoroughly mixed 3 times, and 54 μL of the mixture was immediately transferred to the quenching plate at the time point of 0 min. Then 44 μL of the NAPDH cofactor was added to the incubation plate (T60). Timing was started, and the plate was incubated with shaking at 37° C. for 60 min. At the time points of 5, 15, 30, 45, and 60 min, 180 μL of the quenching solution was added to the quenching plate respectively, mixed once, and 60 μL of sample was continuously transferred from the plate T60 to the quenching plate at each time point. For plate NCF60, after mixing once, 60 μL of the sample was transferred from incubation plate NCF60 to the quenching plate containing quenching solution at the 60-min time point. All sampling plates were shaken for 10 min, then centrifuged at 4000 rpm at 4° C. for 20 min. 80 μL of the supernatant was transferred to 240 μL of HPLC water, and mixed using a plate shaker for 10 min. Each bioanalytical plate was sealed and shaken for 10 min before LC-MS/MS analysis.

For data set [4], the system named is IMQ psoriasis model. Briefly: IMQ (imiquimod)-induced psoriasis model. Type of data set: in vivo, BALB/c mice. The conditions noted are these: Mean ± SD, n = 7; for PASI Score d 6: Model 8.85 ± 1.66; for ΔSkin Thickness Change (μm) d 6: Model 80.95 ± 6.16. The protocol:
Male BALB/c mice, aged 6-8 weeks, were randomly divided into 9 groups after 1 week of acclimatization: blank control group, imiquimod model group (IMQ group, corresponding to the model groups in FIGS. 1 and 2), clobetasol propionate cream group (CLO group), TYKI (BMS-986165) group, IRAK4 protein degrader KT-474 (from patent WO2020113233) group (100 mg/kg), and the compound of the present disclosure (at an appropriate dose), with 6-7 mice in each group. One day before modeling, the hair on the backs of the mice was removed with depilatory cream, with a depilated area of 2×2 cm^2. On the day of modeling, IMQ cream was used for modeling, and the corresponding drugs were administered intragastrically for treatment. The compound of the present disclosure (at an appropriate dose) was administered intragastrically once daily, and IMQ cream was applied to the hairless area on the back and left ear of mice 2 h after the first administration. […] The blank group and the IMQ group were administered with vehicle intragastrically twice daily (in the morning and evening), with an 8-h interval between the two intragastric administrations. At 2 h after the first intragastric administration, vaseline and IMQ cream were applied topically to the depilated back and ears of the mice, respectively. The dosage of IMQ cream administered to the depilated area on the back and the left ear was 80 mg and 10 mg, respectively, and the mice in each group were administered the cream for 5 consecutive days.
Reference was made to the Psoriasis Area and Severity Index (PASI) scoring criteria. The psoriasis, erythema, and thickness of skin lesions on the back were scored from 0 to 4 every morning from day 1 of modeling, with the scoring criteria as shown in Table 28. The 3 were added up to obtain a total score, i.e., a total PASI score. The ear thickness of the left ear of the mouse was measured using a digital vernier caliper three times every morning from day 1 of modeling, to obtain a mean value.

Data set [5] concerns R848-induced IL-6 secretion in human peripheral blood mononuclear cells (PBMCs). Briefly: Inhibition of R848-induced IL-6 secretion in human PBMCs (IL-6 ELISA). Type of data set: cell-based. The note with it: PBMC, R848 2.5 μg/mL, 20 h pre-incubation, 24 h stimulation. The method, then: This experiment was carried out in RPMI 1640 medium containing 10% FBS and 1% penicillin/streptomycin, with each of the compounds at an initial test concentration of 1 μM. The compound was dissolved in DMSO to prepare a stock solution, which was serially diluted into a series of working solutions with a 4-fold concentration gradient using the culture medium and then added to a 96-well plate at 10 μL per well. PBMCs (Batch No.: P122101102C; Milecell Biotechnology Inc.) were counted and diluted to a cell concentration of 1.25×10^6 cells/mL, and then added to the aforementioned compound-containing 96-well plate at 160 μL per well. The system was mixed well and incubated in a 5% CO2 incubator at 37° C. for 20 h. Then 10 μL of R848 (final concentration: 2.5 μg/mL) was added, and the culture was continued for 24 h in a 5% CO2 incubator at 37° C. After incubation, the 96-well plate was centrifuged at 2000 rpm for 4 min. The supernatant was collected and diluted 120-fold, then detected using an IL-6 ELISA kit. The OD450 values were read, and converted to IL-6 concentrations based on a standard curve.

A word on the IC50: it is the midpoint of a concentration-inhibition curve. One may read the DC50 as the midpoint of the concentration-degradation curve. Read a high DC50 as degradation only at high concentration.

In the case of `CN(C)c1cc2nn(C3CCN(C[C@H]4CC[C@H](n5cc6cc(C7CCC(=O)NC7=O)c(F)cc6n5)CC4)CC3)cc2cc1NC(=O)c1cnn2cccnc12` (stereo partly shown) [TM-8], in data set [1], the IC50 turned out to be 0.84 nM. Besides, in data set [2], the DC50 was 3.58 nM. In data set [3], the “Human liver microsome (t1/2, min)” value turned out to be 145 min.
On to `CCC(=O)O[C@]1(C(=O)CCl)[C@@H](C)C[C@H]2[C@@H]3CCC4=CC(=O)C=C[C@]4(C)[C@@]3(F)[C@@H](O)C[C@@]21C` [CLO, Clobetasol propionate, reference compound], for which, in data set [4] (160 mg/animal), the “PASI Score d 6” value is listed as 1.17 ± 0.85 and the “ΔSkin Thickness Change (μm) d 6” value is −18.10 ± 6.33 μm.
Regarding `CN(C)c1cc2nn([C@H]3CC[C@H](CN4CC[C@@H](n5cc6cc(C7CCC(=O)NC7=O)c(F)cc6n5)[C@H](F)C4)CC3)cc2cc1NC(=O)c1cnn2cccnc12` (stereo partly shown) [TM-133], the IC50 in data set [1] worked out at 3.55 nM. Moreover, the DC50 in data set [2] is 1.6 nM. In data set [3], the half-life at 1 µM is 107 min.
Regarding `CN(C)c1cc2nn([C@H]3CC[C@H](CN4CC[C@@H](n5cc6ccc(C7CCC(=O)NC7=O)cc6n5)[C@H](F)C4)CC3)cc2cc1NC(=O)c1cnn2cccnc12` (stereo partly shown) [TM-152], in data set [1], the IC50 worked out at 9.43 nM. The DC50 in data set [2] is 1.09 nM. For the same molecule, in data set [3], the half-life at 1 µM came out at 104 min.
In the case of `CN(C)c1cc2nn([C@H]3CC[C@H](CN4CCC(n5cc6cc(F)c(C7CCC(=O)NC7=O)cc6n5)CC4)CC3)cc2cc1NC(=O)c1cnn2cccnc12` (stereo partly shown) [TM-6], in data set [1], the IC50 is 1.15 nM. In addition, in data set [2], the DC50 is 0.7 nM. Also, the half-life at 1 µM in data set [3] came out at 124 min.
As for `CN(C)c1cc2nn([C@H]3CC[C@H](CN4CC[C@H](n5cc6cc(F)c(C7CCC(=O)NC7=O)cc6n5)[C@@H](F)C4)CC3)cc2cc1NC(=O)c1cnn2cccnc12` (stereo partly shown) [TM-138], in data set [1], the IC50 came out at 6.96 nM. Further, the half-life at 1 µM in data set [3] was determined as 91 min.
With `CN(C)c1cc2nn([C@H]3CC[C@H](CN4CC[C@H](n5cc6cc(F)c(C7CCC(=O)NC7=O)cc6n5)[C@H](F)C4)CC3)cc2cc1NC(=O)c1cnn2cccnc12` (stereo partly shown) [TM-136], the concentration for half-maximal inhibition (IC50) in data set [1] worked out at 6.63 nM. In data set [2], this molecule displayed a 50% degradation concentration (DC50) of 1.71 nM. Also, in data set [3], the half-life at 1 µM worked out at 101 min.
In the case of “Deucravacitinib [TYKi, reference compound]”, in data set [4] (30 mg/kg, BID), the “PASI Score d 6” value stood at 4.32 ± 2.42 and the “ΔSkin Thickness Change (μm) d 6” value is recorded as 53.57 ± 15.87 μm.
Consider `CN(C)c1cc2nn([C@H]3CC[C@H](CN4CC[C@H](n5cc6cc(C7CCC(=O)NC7=O)c(F)cc6n5)[C@H](F)C4)CC3)cc2cc1NC(=O)c1cnn2cccnc12` (stereo partly shown) [TM-132], for which the figures for the IC50 in data set [5] and in data set [1] were 7.83 nM and 3.52 nM, respectively. In data set [2], this molecule had a DC50 of 0.31 nM. The half-life at 1 µM in data set [3] is 93.1 min.
Consider `CN(C)c1cc2nn([C@H]3CC[C@H](CN4CCC(n5cc6cc(N7CCC(=O)NC7=O)ccc6n5)CC4)CC3)cc2cc1NC(=O)c1cnn2cccnc12` [TM-3], for which the IC50 in data set [5] was 3.53 nM; in data set [1], 0.39 nM. The same molecule registered a DC50 in data set [2] of 2.76 nM. Further, in data set [3], the “Human liver microsome (t1/2, min)” value is on record as 145 min.
In the case of `CN(C)c1cc2nn([C@H]3CC[C@H](CN4CC[C@@H](n5cc6cc(F)c(C7CCC(=O)NC7=O)cc6n5)[C@H](F)C4)CC3)cc2cc1NC(=O)c1cnn2cccnc12` (stereo partly shown) [TM-137], the IC50 in data set [1] amounted to 2.4 nM. In addition, the DC50 in data set [2] stood at 9.41 nM. Besides, the half-life at 1 µM in data set [3] stood at 92.3 min.
For the molecule `CN(C)c1cc2nn([C@H]3CC[C@H](CN4CCC(n5cc6c(F)cc(C7CCC(=O)NC7=O)cc6n5)CC4)CC3)cc2cc1NC(=O)c1cnn2cccnc12` (stereo partly shown) [TM-233], the IC50 came out at 3.34 nM in data set [5] and 0.83 nM in data set [1]. Besides, the half-life at 1 µM in data set [3] was 138 min.
Regarding `CN(C)c1cc2nn([C@H]3CC[C@H](CN4CC[C@H](n5cc6cc(C7CCC(=O)NC7=O)c(F)cc6n5)[C@@H](F)C4)CC3)cc2cc1NC(=O)c1cnn2cccnc12` (stereo partly shown) [TM-134], the IC50 in data set [1] is 2.59 nM. Further, the half-maximal degradation concentration (DC50) in data set [2] was 3 nM. The half-life at 1 µM in data set [3] came out at 114 min.
The molecule `CN(C)c1cc2nn([C@H]3CC[C@H](CN4CCC(n5cc6cc(NC7CCC(=O)NC7=O)ccc6n5)CC4)CC3)cc2cc1NC(=O)c1cnn2cccnc12` (stereo partly shown) [TM-196] returned an IC50 in data set [5] of 2.94 nM. In data set [2], this molecule gave a DC50 of 2.84 nM.
